Measured values as given in patent US9611246B2, “Compositions, apparatus, systems, and methods for resolving electronic excited states” (HALLSTAR INNOVATIONS CORP., priority 2012, dated 2017).

How the values were obtained:
Assay type in all cases: physicochemical
[1] = Protoporphyrin IX fluorescence lifetime quenching (singlet excited state); conditions: for bimolecular quenching rate constant for singlet excited state quenching (in words) / Singlet Quenching Rate Constant: PPIX; for Singlet Quenching Rate Constant: acetonitrile solutions at room temperature
Method: Fluorescence lifetime measurements are a convenient way to measure singlet state quenching by stabilizers. Protoporphyrin IX decay traces were recorded in the absence and presence of compound I(a)(1) and alkoxy […] (FIG. 3). […] The collected data shown in FIG. 3 were used to determine the bimolecular quenching rate constant for singlet excited state quenching by the compounds. The quenching rate constant may be directly extracted from the slope of the plot of the inverse fluorescence lifetime vs. the concentration of the two compounds (FIG. 4). […] The biomolecular quenching rate constants for singlet excited state (kq^S) and triplet excited state (kq^T) quenching of PPIX by stabilizers in acetonitrile solutions at room temperature is shown in Table 4, as well and the Stern-Volmer rate constants.

[2] = Protoporphyrin IX triplet state quenching by laser flash photolysis; conditions: for Triplet Quenching Rate Constant: PPIX, acetonitrile solutions at room temperature
Method: To investigate if triplet states of protoporphyrin IX are quenched by the two compounds, laser flash photolysis experiments were performed. In these experiments, a deoxygenated acetonitrile solution of protoporphyrin IX is excited with short laser pulses from a Nd-YAG laser (355 nm, 5 ns pulse width). Difference absorption kinetic traces were recorded at different observation wavelengths (300 to 800 nm) and from these a transient absorption spectrum was constructed (FIG. 5A). […] In addition, two bands are observed at 320 and 440 nm, which are assigned to the triplet-triplet absorption of protoporphyrin IX. […] Triplet absorption kinetics at 440 nm may be utilized to obtain triplet quenching rate constants by the stabilizers. Triplet decay traces at 440 nm were recorded in the presence of different amounts of the alkoxy […], Formulas […])(1), and the mixture of II(b)(1) and II(c)(1). The decay traces were fitted to a first-order kinetics. The plot of these pseudo-first-order rate constants (inverse decay lifetime) vs. the concentration of the two compounds gives directly the bimolecular triplet quenching rate constant from the slope (FIG. 6). The biomolecular quenching rate constants for singlet excited state (kq^S) and triplet excited state (kq^T) quenching of PPIX by stabilizers in acetonitrile solutions at room temperature is shown in Table 4, as well and the Stern-Volmer rate constants.

[3] = Luminescence experiments in ethanol (room temperature and 77 K matrix)
Method: Because Formula II(a)(1) contains a ketone functionality, intersystem crossing into the triplet state could be promoted after photoexcitation due to spin-orbit coupling. Stabilizer triplet states could generate singlet oxygen. Low-temperature luminescence experiments in a ethanol matrix at 77 K were performed in search for phosphorescence of potential triplet states.
The quenching mechanism of protoporphyrin IX singlet excited states and triplet states by the compound of Formulas I, II, and III may be further clarified. A simple energy transfer mechanism would depend on the singlet and triplet energies of compounds of Formula I and protoporphyrin IX. To get information on excited state energies of the stabilizer, luminescence experiments were performed. […] However, weak luminescence was observed of the compound of Formula I(a)(1) in a frozen ethanol matrix at 77 K. The luminescence with maximum at 575 nm (FIG. 7c) originates from the compound of Formula I(a)(1), because the luminescence excitation spectrum (FIG. 7b) matches well the absorption spectrum of the compound of Formula I(a)(1) (FIG. 5a). The luminescence lifetime could not be determined, because of the weak signal intensity. […] If the luminescence at 575 nm is the fluorescence, then the Stoke's shift is unusually large. Independent of the assignment of the luminescence to the fluorescence or phosphorescence, this excited state energy is higher than singlet and triplet energies of protoporphyrin IX and rules out a simple energy transfer quenching mechanism. Another possible quenching mechanism is electron transfer quenching which would depend on the redox potentials of the protoporphyrin and the two quencher compounds.

[4] = Stern-Volmer analysis of singlet oxygen suppression
Text: The singlet oxygen phosphorescence intensity in the absence of the compound of Formulas I(a)(1), II(a)(1), II(d)(1), II(e)(1), or a mixture of II(b)(1) and II(c)(1) (I0) divided by the singlet oxygen phosphorescence intensity in the presence of compounds of Formula I/II(I) was plotted against the Formula I/II concentration (FIG. 16). From the slope of these plots (Stern-Volmer constant) and the lifetime of the quenched excited state, the bimolecular quenching constant can be extracted. If the excited state, which is quenched by the compound of Formula I(a)(1) (which causes a reduction in singlet oxygen production) is the singlet excited state of protoporphyrin IX then, using the previously measured fluorescence lifetime in acetonitrile (if =12.7 ns) a quenching rate constant of 2.4×10^9 M^−1 s^−1 is estimated. […] The rate constant derived from singlet oxygen phosphorescence quenching (FIG. 16) is only half of the more directly derived rate constant from fluorescence quenching, which could be caused by the difference in solvents or by some contribution of protoporphyrin triplet quenching by the compound of Formula I(a)(1). […] This rate constant is 5 times higher than the directly measured rate constant by laser flash photolysis (6.1×10^6 M^−1 s^−1). […] It must be noted that protoporphyrin IX triplet lifetime of ˜1 μs in air saturated DMSO was only estimated based on the directly measured triplet lifetime in air saturated acetonitrile and considering the different oxygen concentration in DMSO compared to acetonitrile. If necessary, the protoporphyrin IX triplet lifetime in air saturated DMSO can easily be measured by laser flash photolysis. The complex reaction mechanism is summarized in Scheme 1 (FIG. 17).
The biomolecular quenching rate constants for singlet excited state (kq^S) and triplet excited state (kq^T) quenching of PPIX by stabilizers in acetonitrile solutions at room temperature is shown in Table 4, as well and the Stern-Volmer rate constants.
Stern-Volmer constants are in direct correlation with the singlet oxygen suppression efficiency. Table 4 (above) summarizes the Stern-Volmer constants and PPIX singlet and triplet state quenching rate constants. Three different ranges of Stern-Volmer constants were observed. […] For compounds I(a)(1), II(d)(1), and the mixture of II(b)(1) and II(c)(1), Stern-Volmer constants of about 30 M^−1 were observed. For these three stabilizers, high PPIX singlet quenching rate constants (about 5×10^9 M^−1 s^−1) but low triplet quenching rate constants (<10^9 M^−1 s^−1) were observed. Here, the singlet oxygen suppression is probably dominated by PPIX singlet excited state quenching by these stabilizers. […] Because of the very high PPIX triplet quenching rate constant by compound II(a)(1) (3.2×10^9 M^−1 s^−1), the singlet oxygen suppression is probably dominated by triplet quenching. […] These kinetic parameters may include the MePPIX triplet and singlet lifetimes in air saturated and oxygen free CDCl3 and the bimolecular quenching constant by oxygen.

[5] = Voltammetry, redox potential with respect to Ag/AgCl reference electrode; conditions: vs Ag/AgCl; for second redox couple, oxidation peak: the small peak where two are given
Text: For these experiments, dimethylsulfoxide (DMSO) and tetrabutylammonium perchlorate (TBAP) were obtained from Sigma Aldrich and used as received. […] Platinum wires (BASi MW-1032) of diameter 0.5 mm were employed for both the working electrode (WE) and counter electrode (CE). A dry-solvent tolerant Ag/AgCl reference electrode (RE) was obtained from eDAQ (Model ET072). The WE and CE were cleaned prior to each by first rinsing in acetone, then DI, followed by soaking in ˜50% aqueous H2SO4 for 10-20 minutes and then a final DI rinse. The RE electrode was cleaned prior to each use by an acetone rinse followed by DI rinse. Each sample solution was prepared in a fresh glass vial which had been rinsed with DI then acetone and allowed to dry Immediately after preparing each solution, it was purged with pure N2 gas for 15-20 minutes with the electrodes in place. Voltammetry data was collected shortly afterwards with an EG&G PAR 263 A Potentiostant/Galvanostat operated using a Labview-based control program. Scans were performed at various potential ranges between +2.0V and −2.0V (vs Ag/AgCl); all scan rates were constant at 200 mV/s.

[6] = 0.01 M in 0.1 M TBAP in DMSO, 200 mV/s

Row | SMILES | bimolecular quenching rate constant for singlet excited state quenching (in words) ([1]; acetonitrile) | Singlet Quenching Rate Constant [1] | PPIX triplet quenching rate constant by laser flash photolysis [2] [M⁻¹ s⁻¹] | Triplet Quenching Rate Constant [2] | PPIX triplet quenching (in words) ([2]; triplet decay at 440 nm) | luminescence maximum ([3]; ethanol matrix at 77 K) [nm] | luminescence quantum yield ([3]; ethanol matrix at 77 K) | Stern-Volmer Constant of ^1O2 Suppression [4] [M⁻¹] | second redox couple, oxidation peak (large) [5] | second redox couple, reduction peak [5, 6] [mV] | second redox couple, redox potential ([5]; estimated from the peaks) | second redox couple, oxidation peak [5] [mV] | rate constant of PPIX singlet quenching using fluorescence quenching ([1]; acetonitrile) [M⁻¹ s⁻¹] | quenching of protoporphyrin IX fluorescence (fluorescence lifetime) ([1]; acetonitrile, alkoxy crylene even at 0.1 M) | fluorescence at room temperature ([3]; ethanol solution) | rate constant from Stern-Volmer plot, if suppression entirely caused by triplet quenching ([4]; considering triplet lifetime ~1 μs in air saturated DMSO) [M⁻¹ s⁻¹] | quenching rate constant from Stern-Volmer constant, if singlet excited state is quenched ([4]; using fluorescence lifetime 12.7 ns) [M⁻¹ s⁻¹] | first (or only) redox couple, oxidation peak [5, 6] [mV] | first (or only) redox couple, reduction peak [5, 6] [mV] | first (or only) redox couple, redox potential ([5]; estimated from the peaks) [mV]
1 | COC(=O)C(C#N)=C1c2ccccc2C(=O)c2ccccc21 [Formula II(a)(1)] | high quenching rate constant | 5.2 10^9 M^−1s^−1 | 3.2e+09 | 3.2 10^9 M^−1s^−1 | most efficient quencher | 492 | less than 1% | 240 | +430 mV | −1537 | −1501 mV | −1466 | – | – | – | – | – | – | – | –
2 | COC(=O)C(C#N)=C1c2ccccc2-c2ccccc21 [Formula I(a)(1)] | high quenching rate constant | 5.3 10^9 M^−1s^−1 | 6.1e+06 | 0.0061 10^9 M^−1s^−1 | – | 575 | – | – | – | −1297 | approximately −1199 mV | −1102 | 5.3e+09 | significantly quenches | did not give detectable fluorescence | ~3e+07 | 2.4e+09 | −560 | −757 | −658
